Laboratory results reported in US9809573B2, “Substituted pyridine derivatives useful as GSK-3 inhibitors” (priority 2013, dated 2017).
Like-named read-outs stand apart in the source and are kept apart here.

Assays:
GSK3β = GSK3β (Homo sapiens, UniProt P49841); assay: GSK3β kinase assay (Caliper LabChip3000, fluoresceinated peptide substrate); assay type: biochemical
How it was run: (§1)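 Eleven-point compound titrations (10 mM DMSO stocks) incubated with kinase and fluorescent peptide for 20 h at room temperature before EDTA quench. Substrate-to-product conversion measured by microfluidic mobility shift; IC50 from non-linear fitting.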

GSK3α = GSK3α (Homo sapiens, UniProt P49840); assay: biochemical
How it was run: as §1

pTau = pTau assay (method not described); assay type: cell-based
[1] = first value of the cell, 250 pM enzyme, 20 uM ATP, 20 hours at room temperature, read-out: GSK3β/α (nM): GSK3β IC50
[2] = second value of the cell, 250 pM enzyme, 20 uM ATP, 20 hours at room temperature, read-out: GSK3β/α (nM): GSK3α IC50

GSK3β, sequence (P49841 whole entry, species assumed): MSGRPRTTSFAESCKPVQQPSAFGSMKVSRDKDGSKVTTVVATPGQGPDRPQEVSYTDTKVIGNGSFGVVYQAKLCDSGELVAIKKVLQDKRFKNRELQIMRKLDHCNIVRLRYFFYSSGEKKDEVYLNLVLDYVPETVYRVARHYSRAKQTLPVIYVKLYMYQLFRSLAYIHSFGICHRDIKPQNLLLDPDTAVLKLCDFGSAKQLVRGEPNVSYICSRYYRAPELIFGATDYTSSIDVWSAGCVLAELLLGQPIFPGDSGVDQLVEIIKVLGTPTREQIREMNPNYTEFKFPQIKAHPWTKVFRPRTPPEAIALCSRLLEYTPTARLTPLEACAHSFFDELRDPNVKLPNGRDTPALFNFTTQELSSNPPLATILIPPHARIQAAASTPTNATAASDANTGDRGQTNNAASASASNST
GSK3α, sequence (P49840 whole entry, species assumed): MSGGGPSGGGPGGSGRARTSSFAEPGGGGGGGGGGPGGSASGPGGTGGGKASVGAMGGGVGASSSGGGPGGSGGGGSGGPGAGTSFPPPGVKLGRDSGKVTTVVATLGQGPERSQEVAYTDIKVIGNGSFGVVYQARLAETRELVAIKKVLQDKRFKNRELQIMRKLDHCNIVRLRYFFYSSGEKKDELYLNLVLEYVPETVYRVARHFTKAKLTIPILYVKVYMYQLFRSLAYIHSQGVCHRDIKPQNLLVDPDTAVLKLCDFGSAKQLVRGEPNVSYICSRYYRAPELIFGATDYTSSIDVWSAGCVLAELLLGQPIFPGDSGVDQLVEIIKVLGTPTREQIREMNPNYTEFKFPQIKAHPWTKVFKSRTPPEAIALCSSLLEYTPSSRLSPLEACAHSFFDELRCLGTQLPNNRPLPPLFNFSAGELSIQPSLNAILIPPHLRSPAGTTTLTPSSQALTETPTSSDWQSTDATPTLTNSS

Row | IC50 (GSK3β; [1]) | IC50 (GSK3α; [2]) | IC50 (pTau; read-out: pTau) | IC50 (GSK3α) | IC50 (pTau; read-out: pTau (nM)) | Compound | IC50 (GSK3β)
1 | 2.6 nM | 4.8 nM | 310 nM | – | – | COc1ccnc(-c2ccccc2)c1NC(=O)c1ccnc(NC(=O)C2CC2)c1 [Example 62, 2-(Cyclopropanecarboxamido)-N-(4-methoxy-2-phenylpyridin-3-yl)isonicotinamide] | –
2 | 12 nM | 56 nM | 4100 nM | – | – | O=C(Nc1c(-c2ccccc2)ncc2ccccc12)c1ccnc(NC(=O)C2CC2)c1 [Example 63, 2-(Cyclopropanecarboxamido)-N-(3-phenylisoquinolin-4-yl)isonicotinamide] | –
3 | 97 nM | 76 nM | ≥ 10000 nM | – | – | O=C(Nc1cnccc1-c1cncnc1)c1ccnc(NC(=O)C2CC2)c1 [Example 64, 2-(Cyclopropanecarboxamido)-N-(4-(pyrimidin-5-yl)pyridin-3-yl)isonicotinamide] | –
4 | 7 nM | 4.5 nM | 280 nM | – | – | O=C(Nc1cnccc1-c1ccc(C(F)(F)F)cc1Cl)c1ccnc(NC(=O)C2CC2)c1 [Example 70, N-(4-(2-chloro-4-(trifluoromethyl)phenyl)pyridin-3-yl)-2-(cyclopropanecarboxamido)isonicotinamide] | –
5 | 3.1 nM | 6.4 nM | 250 nM | – | – | CCCc1ccc(-c2ccncc2NC(=O)c2ccnc(NC(=O)C3CC3)c2)cc1 [Example 72, 2-(Cyclopropanecarboxamido)-N-(4-(4-propylphenyl)pyridin-3-yl)isonicotinamide] | –
6 | 30 nM | 7.4 nM | 460 nM | – | – | CC(C)c1ccc(-c2ccncc2NC(=O)c2ccnc(NC(=O)C3CC3)c2)cc1 [Example 75, 2-(Cyclopropanecarboxamido)-N-(4-(4-isopropylphenyl)pyridine-3-yl)isonicotinamide] | –
7 | 1.5 nM | 0.46 nM | 34 nM | – | – | O=C(Nc1cnccc1N1CCCC(F)(F)C1)c1ccnc(NC(=O)C2CC2)c1 [Example 80, 2-(Cyclopropanecarboxamido)-N-(4-(3,3-difluoropiperidin-1-yl)pyridin-3-yl)isonicotinamide] | –
8 | 1.3 nM | 0.58 nM | 31 nM | – | – | COc1ccc(-c2ccncc2NC(=O)c2ccnc(NC(=O)C3CC3)c2)c(F)c1 [Example 81, 2-(Cyclopropanecarboxamido)-N-(4-(2-fluoro-4-methoxyphenyl)pyridin-3-yl)isonicotinamide] | –
9 | 9.6 nM | 4 nM | 200 nM | – | – | O=C(Nc1cnccc1-c1ccc(C(F)(F)F)cc1F)c1ccnc(NC(=O)C2CC2)c1 [Example 82, 2-(Cyclopropanecarboxamido)-N-(4-(2-fluoro-4-(trifluoromethyl)phenyl)pyridine-3-yl)isonicotinamide] | –
10 | 71 nM | 49 nM | 4400 nM | – | – | O=C(Nc1cnccc1N1CCC(F)(F)C1)c1ccnc(NC(=O)C2CC2)c1 [Example 83, 2-(Cyclopropanecarboxamido)-N-(4-(3,3-difluoropyrrolidin-1-yl)pyridin-3-yl)isonicotinamide] | –
11 | 2.9 nM | 0.94 nM | 33 nM | – | – | N#Cc1ccc(-c2ccncc2NC(=O)c2ccnc(NC(=O)C3CC3)c2)c(F)c1 [Example 85, N-(4-(4-cyano-2-fluorophenyl)pyridin-3-yl)-2-(cyclopropanecarboxamido)isonicotinamide] | –
12 | 54 nM | 26 nM | 630 nM | – | – | O=C(Nc1cnccc1-c1cc(Cl)ccc1F)c1ccnc(NC(=O)C2CC2)c1 [Example 86, 2-(Cyclopropanecarboxamido)-N-(4-(2-fluoro-5-chloro-phenyl)pyridin-3-yl)isonicotinamide] | –
13 | 9.1 nM | 3.9 nM | 170 nM | – | – | O=C(Nc1c(N2CCOCC2)ccnc1F)c1ccnc(NC(=O)C2CC2)c1 [Example 88, 2-(Cyclopropanecarboxamido)-N-(2-fluoro-4-morpholinopyridin-3-yl)isonicotinamide] | –
14 | 24 nM | 11 nM | 460 nM | – | – | CN(C)C(=O)c1ccc(-c2ccncc2NC(=O)c2ccnc(NC(=O)C3CC3)c2)c(F)c1 [Example 92, 2-(Cyclopropanecarboxamido)-N-(4-(4-(dimethylcarbamoyl)-2-fluorophenyl)pyridin-3-yl)isonicotinamide] | –
15 | 13 nM | 5 nM | 120 nM | – | – | O=C(Nc1cnccc1-c1ccc(OC(F)(F)F)cc1F)c1ccnc(NC(=O)C2CC2)c1 [Example 94, 2-(Cyclopropanecarboxamido)-N-(4-(2-fluoro-4-(trifluoromethoxy)phenyl)pyridin-3-yl)isonicotinamide] | –
16 | 1.9 nM | 1.4 nM | 100 nM | – | – | O=C(Nc1cnccc1-c1cc2ccccc2o1)c1ccnc(NC(=O)C2CC2)c1 [Example 95, N-(4-(benzofuran-2-yl)pyridin-3-yl)-2-(cyclopropanecarboxamido)isonicotinamide] | –
17 | 4.1 nM | 1.7 nM | 66 nM | – | – | Cn1c(-c2ccncc2NC(=O)c2ccnc(NC(=O)C3CC3)c2)cc2ccccc21 [Example 96, 2-(Cyclopropanecarboxamido)-N-(4-(1-methyl-1H-indol-2-yl)pyridin-3-yl)isonicotinamide] | –
18 | 1.1 nM | 8.5 nM | 870 nM | – | – | CC1(C)CC1C(=O)Nc1cc(C(=O)Nc2cnccc2-c2ccccc2)ccn1 (stereo not drawn) [Example 97, 2-(2,2-Dimethylcyclopropanecarboxamido)-N-(4-phenylpyridin-3-yl)isonicotinamide] | –
19 | 11 nM | 17 nM | 1400 nM | – | – | O=C(Nc1cnccc1-c1ccccc1)c1ccnc(NC(=O)C2CC2(F)F)c1 (stereo not drawn) [Example 98, 2-(2,2-Difluorocyclopropanecarboxamido)-N-(4-phenylpyridin-3-yl)isonicotinamide] | –
20 | 26 nM | 7.5 nM | 350 nM | – | – | CC1CC1C(=O)Nc1cc(C(=O)Nc2cnccc2-c2ccccc2)ccn1 (stereo not drawn) [Example 100, 2-(2-Methylcyclopropanecarboxamido)-N-(4-phenylpyridin-3-yl)isonicotinamide] | –
21 | 30 nM | 13 nM | 3100 nM | – | – | COC(=O)c1cncc(NC(=O)c2ccnc(NC(=O)C3CC3)c2)c1 [Example 101, Methyl 5-(2-(cyclopropanecarboxamido)isonicotinamido)nicotinate] | –
22 | 197 nM | 121 nM | ≥ 10000 nM | – | – | O=C(O)c1cncc(NC(=O)c2ccnc(NC(=O)C3CC3)c2)c1 [Example 103, 5-(2-(cyclopropanecarboxamido)isonicotinamido)nicotinic Acid] | –
23 | – | – | – | 2 nM | 270 nM | O=C(Nc1cncc(-c2ccccc2)c1)c1ccnc(NC(=O)C2CC2)c1 [Example 104, 2-(cyclopropanecarboxamido)-N-(5-phenylpyridin-3-yl)isonicotinamide] | 5 nM
24 | 6.5 nM | 3.6 nM | 6900 nM | – | – | NC(=O)c1cncc(NC(=O)c2ccnc(NC(=O)C3CC3)c2)c1 [Example 105, 5-(2-(cyclopropanecarboxamido)isonicotinamido)nicotinamide] | –

Row | Compound | IC50 (GSK3β; [1]) | IC50 (GSK3α; [2]) | IC50 (pTau; read-out: pTau) | IC50 (GSK3α) | IC50 (pTau; read-out: pTau (nM)) | IC50 (GSK3β)
25 | O=C(Nc1cnccc1N1C2CCC1CC2)c1ccnc(NC(=O)C2CC2)c1 [Example 60, N-(4-(1s,4s)-7-azabicyclo[2.2.1]heptan-7-yl)pyridin-3-yl)-2-(cyclopropanecarboxamido)isonicotinamide] | 16 nM | 5.7 nM | 620 nM | – | – | –
26 | C[C@@H]1CN(c2ccncc2NC(=O)c2ccnc(NC(=O)C3CC3)c2)C[C@H](C)O1 [Example 79, 2-(Cyclopropanecarboxamido)-N-(4-((2S,6R)-2,6-dimethylmorpholino)pyridin-3-yl)isonicotinamide] | – | 5.5 nM | 190 nM | – | – | 14 nM
27 | CC1(C)CN(c2ccncc2NC(=O)c2ccnc(NC(=O)C3CC3)c2)CCO1 [Example 87, 2-(Cyclopropanecarboxamido)-N-(4-(2,2-dimethylmorpholino)pyridin-3-yl)isonicotinamide] | – | 0.39 nM | 25 nM | – | – | 0.79 nM
28 | CC1(C)COCCN1c1ccncc1NC(=O)c1ccnc(NC(=O)C2CC2)c1 [Example 90, 2-(Cyclopropanecarboxamido)-N-(4-(3,3-dimethylmorpholino)pyridin-3-yl)isonicotinamide] | – | 0.1 nM | 0.4 nM | – | – | 0.15 nM
29 | Cc1cncc(NC(=O)c2ccnc(NC(=O)C3CC3)c2)c1 [Example 102, 2-(cyclopropanecarboxamido)-N-(5-methylpyridin-3-yl)isonicotinamide] | – | 5.4 nM | 740 nM | – | – | 9.5 nM
30 | O=C(Nc1cncc(-c2ccncc2)c1)c1ccnc(NC(=O)C2CC2)c1 [Example 106, N-([3,4′-bipyridin]-5-yl)-2-(cyclopropanecarboxamido)isonicotinamide] | – | 2.5 nM | 320 nM | – | – | 4.8 nM
31 | O=C(Nc1cncc(Oc2ccccc2)c1)c1ccnc(NC(=O)C2CC2)c1 [Example 107, 2-(cyclopropanecarboxamido)-N-(5-phenoxypyridin-3-yl)isonicotinamide] | – | 9.1 nM | 3300 nM | – | – | 19 nM
32 | O=C(Nc1cncc(N2CCCCC2)c1)c1ccnc(NC(=O)C2CC2)c1 [Example 108, 2-(cyclopropanecarboxamido)-N-(5-(piperidin-1-yl)pyridin-3-yl)isonicotinamide] | – | 23 nM | 5400 nM | – | – | 130 nM
33 | O=C(Nc1cncc(N2CCOCC2)c1)c1ccnc(NC(=O)C2CC2)c1 [Example 109, 2-(cyclopropanecarboxamido)-N-(5-morpholinopyridin-3-yl)isonicotinamide] | – | 17 nM | 2000 nM | – | – | 73 nM
